# Laboratory results taken from patent US4988604A, “High contrast photographic element including an aryl sulfonamidophenyl hydrazide containing both thio and ethyleneoxy groups” (Eastman Kodak Company, priority 1990, dated 1991).
# Legend:
# [1] = photographic performance of coatings containing nucleator: relative speed, dot quality, contrast (Example 1); conditions: for Relative Speed: incorporated booster 64.6 mg/m^2, 1 minute at 35° C., pH 10.5; for DQ (contact screen exposed halftone dot quality): rated on a scale, 5 is excellent; for photographic speed (in words): comparison of tests of Table I
# Experimental: Each coating used in obtaining the data provided in this example was prepared on a polyester support, using a monodispersed 0.24 μm AgBrI (2.5 mol % iodide) iridium-doped emulsion at 3.51 g/m^2 Ag, 2.54 g gel/m^2, and 1.08 g latex/m^2 where the latex is a copolymer of methyl acrylate, 2-acrylamido-2-methylpropane sulfonic acid, and 2-acetoacetoxyethylmethylacrylate. The silver halide emulsion was spectrally sensitized with 214 mg/Ag mol of anhydro-5,5'-dichloro-9-ethyl-3,3'-di-(3-sulfopropyl) oxacarbocyanine hydroxide, triethylene salt and the emulsion layer was overcoated with gelatin containing polymethylmethacrylate beads. The nucleating agent was added as a methanol solution to the emulsion melts at a level in millimoles (mM) per mole of silver as hereinafter indicated. An "incorporated booster" was added as a methanol solution in an amount of 64.6 milligrams per square meter of photographic element. The compound employed as the "incorporated booster" is represented by the formula: [drawing 8] where Pr represents n-propyl. Coatings were exposed for five seconds to a 3000° K. tungsten light source and processed for 1 minute at 35° C. in the developer solution.
# To prepare the developer solution, a concentrate was prepared from the following ingredients:
# The concentrate was diluted at a ratio of one part of concentrate to two parts of water to produce a working strength developing solution with a pH of 10.5.
# *DQ = contact screen exposed halftone dot quality rated on a scale where
# is poor and 5 is excellent.
# [2] = chemical spread: dot diameter growth rate of coatings containing nucleator (Example 2); conditions: for Dot Diameter Growth Rate: 10 to 60 seconds development
# From the text: Coatings similar to those described in Example 1 were examined for differences in the degree of image spreading, so-called chemical spread, that is inherent to high contrast, nucleation processes. The films were exposed 5 seconds with 3000K tungsten light through a 90%, 52 line per centimeter, round dot tint mask to produce hard 10% dots upon development for about 10 seconds in the developer described in Example 1. With extended development beyond 10 seconds (typical development times in practice are 30 to 60 seconds), the nucleation process entails fogging of unexposed silver halide at the dot edges and, in turn, causes the dot to grow in size. The growth of the dot was measured by monitoring the change in density of the developing tint with time from 10 to 60 seconds and converting the measured density to the equivalent dot diameter using the well known relation between integrated halftone density and dot size.
Compound,Relative Speed ([1]; nucleator 1.0 mM/Ag mole),DQ (contact screen exposed halftone dot quality) ([1]; nucleator 1.0 mM/Ag mole),Relative Speed ([1]; nucleator 2.0 mM/Ag mole),DQ (contact screen exposed halftone dot quality) ([1]; nucleator 2.0 mM/Ag mole),Dot Diameter Growth Rate ([2]; nucleator 2.0 mM/Ag mole) [micrometers/sec],photographic speed (in words) [1],screen-exposed halftone dot quality (in words) ([1]; Example 1),Relative Speed ([1]; nucleator 0.5 mM/Ag mole),DQ (contact screen exposed halftone dot quality) ([1]; nucleator 0.5 mM/Ag mole),Relative Speed ([1]; nucleator 0.75 mM/Ag mole),DQ (contact screen exposed halftone dot quality) ([1]; nucleator 0.75 mM/Ag mole),dot diameter growth rate or chemical spread (in words) ([2]; Test 4 (one quarter the concentration) compared with Control Test A^1),Dot Diameter Growth Rate ([2]; nucleator 0.50 mM/Ag mole) [micrometers/sec],Dot Diameter Growth Rate ([2]; nucleator 1.0 mM/Ag mole) [micrometers/sec]
CC(C)c1ccc(C(C)C)c(S(=O)(=O)Nc2ccc(NNC=O)cc2)c1 [Control A],87,3.5,100,4,0.60,,,,,,,,,
CCCCCCCCSCC(=O)Nc1c(C)ccc(S(=O)(=O)Nc2ccc(NNC=O)cc2)c1C [Control C],68,3.5,68,3.5,,significantly lowers the photographic speed relative to the non-thio control of Test A,,,,,,,,
CCCCCCCCOCCOCCOCCOCCSCC(=O)Nc1c(C)ccc(S(=O)(=O)Nc2ccc(NNC=O)cc2)c1C [Compound I-6],,,,,,the same speed was achieved in Test 1 even though the molar concentration of nucleator was one quarter of that used in Control Test B,significant improvement in the screen-exposed halftone dot quality,100,4.5,107,4.5,much less,0.30,0.41
